PubChem BioAssay AID330 (DTP/NCI, 2004)
Values joined by “and” are separate entries in the source; they are usually repeats but may differ in a detail not shown here. Equal values may be shown once. Inconclusive results and toxic doses are left out.

Tested on: P388 leukemia ip, CD2F1 mice, survival T/C
Experiment: NCI In Vivo Anticancer Drug Screen. Data for tumor model P388 Leukemia (intraperitoneal) in CD2F1 (CDF1) mice
Conditions: endpoint: median survival time, higher = longer survival
How it was run: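 Mice carrying the transplanted tumor received test compound or vehicle. Survival was recorded in each group, and the value is the treated-group measurement divided by that of the vehicle-treated control group.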

[1] = dose: 50.0 mg/kg/injection, schedule: Q01DX005 (ip), vehicle: saline with Tween-80
[2] = dose: 100.0 mg/kg/injection, schedule: Q01DX005 (ip), vehicle: saline with Tween-80
[3] = dose: 200.0 mg/kg/injection, schedule: Q01DX005 (ip), vehicle: saline with Tween-80
[4] = dose: 50.0 mg/kg/injection, schedule: Q01DX009 (ip), vehicle: Klucel (hydroxypropylcellulose) (HPC)
[5] = dose: 100.0 mg/kg/injection, schedule: Q01DX009 (ip), vehicle: Klucel (hydroxypropylcellulose) (HPC)
[6] = dose: 200.0 mg/kg/injection, schedule: Q01DX009 (ip), vehicle: Klucel (hydroxypropylcellulose) (HPC)
[7] = dose: 50.0 mg/kg/injection, schedule: Q01DX009 (ip), vehicle: saline
[8] = dose: 100.0 mg/kg/injection, schedule: Q01DX009 (ip), vehicle: saline
[9] = dose: 200.0 mg/kg/injection, schedule: Q01DX009 (ip), vehicle: saline
[10] = dose: 50.0 mg/kg/injection, schedule: Q01DX009 (ip), vehicle: saline with Tween-80
[11] = dose: 100.0 mg/kg/injection, schedule: Q01DX009 (ip), vehicle: saline with Tween-80
[12] = dose: 200.0 mg/kg/injection, schedule: Q01DX009 (ip), vehicle: saline with Tween-80
[13] = dose: 100.0 mg/kg/injection, schedule: Q04DX003 (ip), vehicle: saline with Tween-80
[14] = dose: 200.0 mg/kg/injection, schedule: Q04DX003 (ip), vehicle: saline with Tween-80

O=C1CC2COc3ccc(O)cc3C2=NN1c1ccccc1 (stereo not drawn)
T/C [1]: 94 % of control
T/C [2]: 98 % of control
T/C [3]: 94 % of control

COc1cccc(C2C(C#N)C(=O)NC(=O)C2C#N)c1 (stereo not drawn)
T/C [4]: 102 % of control
T/C [5]: 100 % of control
T/C [6]: 99 % of control

CNC1C(OC2C(OC3C(O)C(O)C(N=C(N)N)C(O)C3N=C(N)N)OC(C)C2(O)/C=N/NC(N)=S)OC(CO)C(O)C1O (stereo not drawn)
T/C [1]: 101 % of control
T/C [2]: 100 % of control
T/C [3]: 103 % of control

[Cl][Sn]1([Cl])[CH2]CCCCCCCCCC[CH2][Sn]([Cl])([Cl])[CH2]CCCCCCCCCC[CH2]1
T/C [1]: 100 % of control
T/C [2]: 86 % of control and 96 % of control
T/C [3]: 91 % of control

CCOC(=O)C[n+]1ccc2c([nH]c3cc(OC)ccc32)c1C
T/C [7]: 97 % of control
T/C [8]: 112 % of control
T/C [9]: 110 % of control

ClCC1CCNCC1
T/C [7]: 100 % of control
T/C [8]: 100 % of control
T/C [9]: 99 % of control

CN(C)c1ccc(-c2nc3ccccc3s2)c(Cl)c1
T/C [10]: 102 % of control
T/C [11]: 103 % of control
T/C [12]: 109 % of control

CCN(CC)CCCNCc1cc(-c2ccccc2)nc2ccccc12
T/C [1]: 101 % of control
T/C [2]: 100 % of control
T/C [3]: 95 % of control

CC(C)(C)OC(=O)NC(CCCN=C(N)N)C(=O)O (stereo not drawn)
T/C (dose: 50.0 mg/kg/injection, schedule: Q01DX005 (ip), vehicle: saline): 100 % of control
T/C (dose: 100.0 mg/kg/injection, schedule: Q01DX005 (ip), vehicle: saline): 94 % of control
T/C (dose: 200.0 mg/kg/injection, schedule: Q01DX005 (ip), vehicle: saline): 100 % of control

O=C1N2CCNc3ccccc3C(c3ccccc3)N1CC2 (stereo not drawn)
T/C (dose: 6.25 mg/kg/injection, schedule: Q01DX005 (ip), vehicle: Klucel (hydroxypropylcellulose) (HPC)): 88 % of control
T/C (dose: 12.5 mg/kg/injection, schedule: Q01DX005 (ip), vehicle: Klucel (hydroxypropylcellulose) (HPC)): 93 % of control
T/C (dose: 25.0 mg/kg/injection, schedule: Q01DX005 (ip), vehicle: Klucel (hydroxypropylcellulose) (HPC)): 102 % of control

CC(C)=CCc1c2c(c3occ(-c4ccc(O)cc4)c(=O)c3c1O)C=CC(C)(C)O2
T/C (dose: 25.0 mg/kg/injection, schedule: Q01DX009 (ip), vehicle: Klucel (hydroxypropylcellulose) (HPC)): 90 % of control
T/C [4]: 90 % of control
T/C [5]: 88 % of control
T/C [6]: 88 % of control

COc1cc(C=Nc2cc(Cl)cc(Cl)c2)ccc1N(CCCl)CCCl
T/C [13]: 159 % of control and 172 % of control
T/C [14]: 181 % of control and 222 % of control
T/C (dose: 300.0 mg/kg/injection, schedule: Q04DX003 (ip), vehicle: saline with Tween-80): 204 % of control

O=[N+]([O-])c1ccc(N/N=C(\CO)c2ccccc2)c([N+](=O)[O-])c1
T/C (dose: 50.0 mg/kg/injection, schedule: Q04DX003 (ip), vehicle: saline with Tween-80): 100 % of control
T/C [13]: 104 % of control
T/C [14]: 100 % of control

NC1(P(=O)(O)O)CCCCC1
T/C [10]: 116 % of control
T/C [11]: 111 % of control
T/C [12]: 111 % of control
